A short description of assay [1]: In vitro phosphate binding at physiological concentration. Type of assay: physicochemical. On the procedure: An exemplary assay for determining phosphate binding is reported in the example 2.1 in which equal masses of ferrihydrite (e.g. 53.6 mg), or indeed any other binder used as a comparison, and a phosphate binder of the present invention were assayed to determine the percentage of phosphate they are capable of binding under physiological conditions. In general, the mass of the materials used in the assay may be between 10 mg and 80 mg inclusive in a 20 mL assay. […]
A solution containing 10 mM phosphate, a physiologically relevant concentration, and 0.9% NaCl was adjusted to pH 3, pH 5 and finally pH 7. […] The percentage of phosphate binding was calculated according to: Phosphate binding=(1−([P]t0−[P]ti)/[P]ti)×100 […]
Iron and phosphorus contents of solutions or solids (including wet solids) were measured using a JY2000-2 ICPOES (Horiba Jobin Yvon Ltd., Stanmore, U.K.) at the iron specific wavelength of 259.940 nm, and at the phosphorus wavelengths of 177.440 and/or 214.914 nm. […] The percentage of iron in solution or solid phase was determined by the difference between the starting iron content and either the iron in the soluble phase or the iron in the solid phase depending on the assay. […]

The nature of assay [2]: Langmuir isotherms, determination of affinity and capacity. The following applies: Langmuir isotherm at pH 5, 10 mM phosphate, 0.9% NaCl, binder mass 13.4-80.4 mg. The assay is classed as physicochemical. The method, then:
The Langmuir isotherms were obtained using the same methodology as in Autissier et al. (2007), except in vitro solutions also contained 0.9% NaCl to make the assay better simulate physiological conditions. These Langmuir isotherms were generated at pH 5 and experimental conditions were similar to those in “Phosphate binding at physiological concentration” except the mass of binders was varied from 13.4-80.4 mg.
We further compared the phosphate binding abilities of FeOH Ad100, FeOH Ad100 SiO2, and lanthanum using Langmuir isotherms. The Langmuir equation relates the adsorption of molecules on a solid surface to a concentration and was adapted to determine the affinity and capacity of the above noted phosphate binders:
C=concentration of adsorbate unbound in mM
Cad/m=mmol of adsorbate bound per g binder
It was not possible to determine these values for Renagel because its low affinity required a higher concentration of phosphate than the physiologically relevant concentration (10 mM) that was tested in this experiment. Langmuir isotherms were generated at pH 5 and experimental conditions were similar to those in FIGS. 2a/b, except the mass of binders was varied from 13.4-80.4 mg.

For the compound `O=C([O-])[O-].O=C([O-])[O-].O=C([O-])[O-].[La+3].[La+3]` [Lanthanum Carbonate, Lanthanum carbonate], the phosphate binding in assay [1] (20 mL 10 mM phosphate, 0.9% NaCl, 54 mg (53.6 mg) binder, pH 3 for 60 min then pH 5 for 60 min, sequentially (FIG. 2a/b)) is reported as 70-85%; in assay [1] (binder exposed directly to the solution at pH 5 for 1 hour, without pre-conditioning at pH 3 (FIG. 3)) it was “≈ 30%”. The “K1 (Affinity)” value in assay [2] is on record as 1.6. In addition, in assay [2] (unit printed for K2, not in the table), the “K2 (Capacity)” value amounted to 1.0 mmol P/g binder.

(Values after US7943664B2, “Phosphate binding materials and their uses” (Medical Research Council, priority 2008, dated 2011).)
